{"source": "patent US6525001B1", "about": "“Substituted pyrimidine and pyridine herbicides” (Mid-American Commercialization Corporation, priority 1997, dated 2003)", "assay_in_all_cases": "Test B pre-/postemergence", "type_in_all_cases": "in vivo", "design_in_all_cases": "key: 0 is no effect; 10 is complete control", "key": {"[1]": {"tested_on": "bedstraw (Galium aparine)", "summary_of_the_method": "(§1)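 Response scores run from 0, meaning no effect, to 10, meaning complete control, assigned by eye relative to controls twelve to sixteen days after spraying. Treatment was both preemergence on planted seed and postemergence on plants at the 1- to 4-leaf stage.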"}, "[2]": {"tested_on": "blackgrass (Alopecurus myosuroides)", "summary_of_the_method": "as §1"}, "[3]": {"tested_on": "broadleaf signalgrass (Brachiaria decumbens)", "summary_of_the_method": "as §1"}, "[4]": {"tested_on": "cocklebur (Xanthium strumarium)", "summary_of_the_method": "as §1"}, "corn (Zea mays)": {"tested_on": "corn (Zea mays)", "summary_of_the_method": "as §1"}, "[5]": {"tested_on": "crabgrass (Digitaria sanguinalis)", "summary_of_the_method": "as §1"}, "[6]": {"tested_on": "momingglory (Ipomoea hederacea)", "summary_of_the_method": "as §1"}, "[7]": {"tested_on": "pigweed (Amaranthus retroflexus)", "summary_of_the_method": "as §1"}, "rape (Brassica napus)": {"tested_on": "rape (Brassica napus)", "summary_of_the_method": "as §1"}, "soybean (Glycine max)": {"tested_on": "soybean (Glycine max)", "summary_of_the_method": "as §1"}, "[8]": {"tested_on": "sugar beet (Beta vulgaris)", "summary_of_the_method": "as §1"}, "[9]": {"tested_on": "velvetleaf (Abutilon theophrasti)", "summary_of_the_method": "as §1"}, "[10]": {"tested_on": "wheat (Triticum aestivum)", "summary_of_the_method": "as §1"}, "wild oat (Avena fatua)": {"tested_on": "wild oat (Avena fatua)", "summary_of_the_method": "as §1"}}}
{"smiles": "CCc1cnc(-c2ccc(C(F)(F)F)cc2)nc1Cc1cccc(C(F)(F)F)c1", "note": "[Compound 22]", "values": [{"measurement": "Bedstraw plant response rating", "setting": "[1]; Rate 62 g/ha, Preemergence", "result": 6}, {"measurement": "Plant response rating, Bedstraw", "setting": "[1]; Rate 125 g/ha, Postemergence", "result": 8}, {"measurement": "Bedstraw plant response rating", "setting": "[1]; Rate 125 g/ha, Preemergence", "result": 7}, {"measurement": "Plant response rating, Bedstraw", "setting": "[1]; Rate 250 g/ha, Postemergence", "result": 8}, {"measurement": "Plant response rating, Bedstraw", "setting": "[1]; Rate 250 g/ha, Preemergence", "result": 7}, {"measurement": "Plant response rating, Blackgrass", "setting": "[2]; Rate 62 g/ha, Postemergence", "result": 5}, {"measurement": "Blackgrass plant response rating", "setting": "[2]; Rate 62 g/ha, Preemergence", "result": 8}, {"measurement": "Plant response rating, Blackgrass", "setting": "[2]; Rate 125 g/ha, Postemergence", "result": 8}, {"measurement": "Blackgrass plant response rating", "setting": "[2]; Rate 125 g/ha, Preemergence", "result": 9}, {"measurement": "Plant response rating, Blackgrass", "setting": "[2]; Rate 250 g/ha, Postemergence", "result": 9}, {"measurement": "Plant response rating, Blackgrass", "setting": "[2]; Rate 250 g/ha, Preemergence", "result": 9}, {"measurement": "Plant response rating, B. signalgrass", "setting": "[3]; Rate 62 g/ha, Postemergence", "result": 5}, {"measurement": "B. signalgrass plant response rating", "setting": "[3]; Rate 62 g/ha, Preemergence", "result": 5}, {"measurement": "Plant response rating, B. signalgrass", "setting": "[3]; Rate 125 g/ha, Postemergence", "result": 7}, {"measurement": "B. signalgrass plant response rating", "setting": "[3]; Rate 125 g/ha, Preemergence", "result": 9}, {"measurement": "Plant response rating, B. signalgrass", "setting": "[3]; Rate 250 g/ha, Postemergence", "result": 7}, {"measurement": "Plant response rating, B. signalgrass", "setting": "[3]; Rate 250 g/ha, Preemergence", "result": 9}, {"measurement": "Plant response rating, Cocklebur", "setting": "[4]; Rate 62 g/ha, Postemergence", "result": 8}, {"measurement": "Cocklebur plant response rating", "setting": "[4]; Rate 62 g/ha, Preemergence", "result": 1}, {"measurement": "Plant response rating, Cocklebur", "setting": "[4]; Rate 125 g/ha, Postemergence", "result": 8}, {"measurement": "Cocklebur plant response rating", "setting": "[4]; Rate 125 g/ha, Preemergence", "result": 1}, {"measurement": "Plant response rating, Cocklebur", "setting": "[4]; Rate 250 g/ha, Postemergence", "result": 8}, {"measurement": "Plant response rating, Cocklebur", "setting": "[4]; Rate 250 g/ha, Preemergence", "result": 2}, {"measurement": "Plant response rating, Corn", "setting": "corn (Zea mays); Rate 62 g/ha, Postemergence", "result": 3}, {"measurement": "Corn plant response rating", "setting": "corn (Zea mays); Rate 62 g/ha, Preemergence", "result": 0}, {"measurement": "Plant response rating, Corn", "setting": "corn (Zea mays); Rate 125 g/ha, Postemergence", "result": 3}, {"measurement": "Corn plant response rating", "setting": "corn (Zea mays); Rate 125 g/ha, Preemergence", "result": 0}, {"measurement": "Plant response rating, Corn", "setting": "corn (Zea mays); Rate 250 g/ha, Postemergence", "result": 4}, {"measurement": "Plant response rating, Corn", "setting": "corn (Zea mays); Rate 250 g/ha, Preemergence", "result": 2}, {"measurement": "Plant response rating, Crabgrass", "setting": "[5]; Rate 62 g/ha, Postemergence", "result": 9}, {"measurement": "Crabgrass plant response rating", "setting": "[5]; Rate 62 g/ha, Preemergence", "result": 7}, {"measurement": "Plant response rating, Crabgrass", "setting": "[5]; Rate 125 g/ha, Postemergence", "result": 9}, {"measurement": "Crabgrass plant response rating", "setting": "[5]; Rate 125 g/ha, Preemergence", "result": 10}, {"measurement": "Plant response rating, Crabgrass", "setting": "[5]; Rate 250 g/ha, Postemergence", "result": 9}, {"measurement": "Plant response rating, Crabgrass", "setting": "[5]; Rate 250 g/ha, Preemergence", "result": 10}, {"measurement": "Plant response rating, Morningglory", "setting": "[6]; Rate 62 g/ha, Postemergence", "result": 10}, {"measurement": "Morningglory plant response rating", "setting": "[6]; Rate 62 g/ha, Preemergence", "result": 3}, {"measurement": "Plant response rating, Morningglory", "setting": "[6]; Rate 125 g/ha, Postemergence", "result": 10}, {"measurement": "Morningglory plant response rating", "setting": "[6]; Rate 125 g/ha, Preemergence", "result": 10}, {"measurement": "Plant response rating, Morningglory", "setting": "[6]; Rate 250 g/ha, Postemergence", "result": 10}, {"measurement": "Plant response rating, Morningglory", "setting": "[6]; Rate 250 g/ha, Preemergence", "result": 10}, {"measurement": "Plant response rating, Redroot pigweed", "setting": "[7]; Rate 62 g/ha, Postemergence", "result": 10}, {"measurement": "Redroot pigweed plant response rating", "setting": "[7]; Rate 62 g/ha, Preemergence", "result": 9}, {"measurement": "Plant response rating, Redroot pigweed", "setting": "[7]; Rate 125 g/ha, Postemergence", "result": 10}, {"measurement": "Redroot pigweed plant response rating", "setting": "[7]; Rate 125 g/ha, Preemergence", "result": 10}, {"measurement": "Plant response rating, Redroot pigweed", "setting": "[7]; Rate 250 g/ha, Postemergence", "result": 10}, {"measurement": "Plant response rating, Redroot pigweed", "setting": "[7]; Rate 250 g/ha, Preemergence", "result": 10}, {"measurement": "Plant response rating, Rape", "setting": "rape (Brassica napus); Rate 62 g/ha, Postemergence", "result": 10}, {"measurement": "Rape plant response rating", "setting": "rape (Brassica napus); Rate 62 g/ha, Preemergence", "result": 5}, {"measurement": "Plant response rating, Rape", "setting": "rape (Brassica napus); Rate 125 g/ha, Postemergence", "result": 10}, {"measurement": "Rape plant response rating", "setting": "rape (Brassica napus); Rate 125 g/ha, Preemergence", "result": 7}, {"measurement": "Plant response rating, Rape", "setting": "rape (Brassica napus); Rate 250 g/ha, Postemergence", "result": 10}, {"measurement": "Plant response rating, Rape", "setting": "rape (Brassica napus); Rate 250 g/ha, Preemergence", "result": 10}, {"measurement": "Plant response rating, Soybean", "setting": "soybean (Glycine max); Rate 62 g/ha, Postemergence", "result": 6}, {"measurement": "Soybean plant response rating", "setting": "soybean (Glycine max); Rate 62 g/ha, Preemergence", "result": 1}, {"measurement": "Plant response rating, Soybean", "setting": "soybean (Glycine max); Rate 125 g/ha, Postemergence", "result": 7}, {"measurement": "Soybean plant response rating", "setting": "soybean (Glycine max); Rate 125 g/ha, Preemergence", "result": 1}, {"measurement": "Plant response rating, Soybean", "setting": "soybean (Glycine max); Rate 250 g/ha, Postemergence", "result": 8}, {"measurement": "Plant response rating, Soybean", "setting": "soybean (Glycine max); Rate 250 g/ha, Preemergence", "result": 2}, {"measurement": "Plant response rating, Sugarbeets", "setting": "[8]; Rate 62 g/ha, Postemergence", "result": 10}, {"measurement": "Sugarbeets plant response rating", "setting": "[8]; Rate 62 g/ha, Preemergence", "result": 9}, {"measurement": "Plant response rating, Sugarbeets", "setting": "[8]; Rate 125 g/ha, Postemergence", "result": 10}, {"measurement": "Sugarbeets plant response rating", "setting": "[8]; Rate 125 g/ha, Preemergence", "result": 9}, {"measurement": "Plant response rating, Sugarbeets", "setting": "[8]; Rate 250 g/ha, Postemergence", "result": 10}, {"measurement": "Plant response rating, Sugarbeets", "setting": "[8]; Rate 250 g/ha, Preemergence", "result": 10}, {"measurement": "Plant response rating, Velvetleaf", "setting": "[9]; Rate 62 g/ha, Postemergence", "result": 8}, {"measurement": "Velvetleaf plant response rating", "setting": "[9]; Rate 62 g/ha, Preemergence", "result": 8}, {"measurement": "Plant response rating, Velvetleaf", "setting": "[9]; Rate 125 g/ha, Postemergence", "result": 8}, {"measurement": "Velvetleaf plant response rating", "setting": "[9]; Rate 125 g/ha, Preemergence", "result": 8}, {"measurement": "Plant response rating, Velvetleaf", "setting": "[9]; Rate 250 g/ha, Postemergence", "result": 9}, {"measurement": "Plant response rating, Velvetleaf", "setting": "[9]; Rate 250 g/ha, Preemergence", "result": 8}, {"measurement": "Plant response rating, Wheat", "setting": "[10]; Rate 62 g/ha, Postemergence", "result": 4}, {"measurement": "Wheat plant response rating", "setting": "[10]; Rate 62 g/ha, Preemergence", "result": 2}, {"measurement": "Plant response rating, Wheat", "setting": "[10]; Rate 125 g/ha, Postemergence", "result": 4}, {"measurement": "Wheat plant response rating", "setting": "[10]; Rate 125 g/ha, Preemergence", "result": 2}, {"measurement": "Plant response rating, Wheat", "setting": "[10]; Rate 250 g/ha, Postemergence", "result": 6}, {"measurement": "Plant response rating, Wheat", "setting": "[10]; Rate 250 g/ha, Preemergence", "result": 4}, {"measurement": "Plant response rating, Wild oats", "setting": "wild oat (Avena fatua); Rate 62 g/ha, Postemergence", "result": 5}, {"measurement": "Wild oats plant response rating", "setting": "wild oat (Avena fatua); Rate 62 g/ha, Preemergence", "result": 7}, {"measurement": "Plant response rating, Wild oats", "setting": "wild oat (Avena fatua); Rate 125 g/ha, Postemergence", "result": 6}, {"measurement": "Wild oats plant response rating", "setting": "wild oat (Avena fatua); Rate 125 g/ha, Preemergence", "result": 8}, {"measurement": "Plant response rating, Wild oats", "setting": "wild oat (Avena fatua); Rate 250 g/ha, Postemergence", "result": 8}, {"measurement": "Plant response rating, Wild oats", "setting": "wild oat (Avena fatua); Rate 250 g/ha, Preemergence", "result": 9}]}
